Test results published in patent US20060058383A1 (priority 2004, published 2006).

Experiments:
HL-60 cells [1] = assay: MTT assay, in vitro cytotoxic activity before and after storage of drug solutions; type: cell-based, human; settings: pH 7.0, 72 h drug incubation
[2] = test system: human leukemia HL-60 cell line; assay: Depletion of cellular ATP pool (PCA extraction, HPLC); type: cell-based; settings: 12 h incubation; HL-60
Description: (§1) Cells were incubated with the indicated concentrations of S-Glycolycin or 3-BrPA for 12 h. Cellular ATP was extracted by 0.4 N PCA, neutralized with KOH, and quantified by HPLC analysis. […] Incubation of cells with 0.03 mM S-Glycolycin completely depleted cellular ATP in both cell lines, while it required a 10-fold greater concentration (0.3 mM) of 3-BrPA to achieve the same degree of ATP depletion.

[3] = test system: respiration-deficient subclone HL-60/C6F cells; assay: as above; type: cell-based, human; settings: 12 h incubation
Description: as §1

HL-60 cells [4] = assay: Induction of apoptosis, annexin-V/PI flow cytometry; type: cell-based, human; settings: 30 μM; 24 h
Description: HL-60 cells were incubated with the indicated concentrations of S-Glycolycin or 3-BrPA for 24 h. Apoptosis was measured by double staining with annexin-V and PI, followed by flow cytometry analysis. […] Incubation of HL-60 cells with 30 μM of S-Glycolycin caused more 90% cells to undergo apoptosis in 24 h, whereas the same concentration of 3-BrPA killed less than 20% of the cells within the same time period.

HL-60/AR cells [5] = assay: MTT cytotoxicity, drug-resistant clone versus parental cells; type: cell-based, human; settings: MTT assay
Description: HL-60 cell line and its drug-resistant clone HL-60/AR were incubated with the indicated concentrations of doxorubicin, vincristine, and 3-BrPA for 72 h. Cytotoxicity was measured by MTT assay. […] Based on the teachings provided herein, studies may be performed to determine the sensitivity of HL-60/AR cells to Glycolycin.
Ara-C, a drug commonly used in the frontline treatment of leukemia, was used in parallel experiments. Cytotoxicity was measured by MTT assay.

[6] = test system: human colon cancer (HCT116) cells; assay: Sensitivity under hypoxic versus normoxic conditions, annexin-V/PI assay; type: cell-based
Description: (§2) Cancer cells in solid tumors have to adapt to the hypoxia environment due to insufficient blood supply. Under hypoxia conditions, cancer cells use the glycolytic pathway to generate ATP without consuming oxygen. This metabolic adaptation also renders cancer cells relatively resistant to anticancer agents and radiation therapy, partially due to up-regulation of expression of cell survival factors such as HIF-1α. […] However, because under hypoxia condition cancer cells dependent on glycolysis for generation of ATP, it is contemplated that such cancer cells are vulnerable to glycolytic inhibition by Glycolycin. […] Thus, it is envisioned that Glycolycin can be use for effective treatment of many solid tumors, either as a single agent or in combination with other anticancer agents.

[7] = test system: respiration-deficient clones HL-c6/ρ^0-C6F and Raji-C6; assay: Cytotoxicity in respiration-deficient clones, annexin-V/PI and colony formation; type: cell-based, human
Description: Initial studies have been performed to test the sensitivity of respiration-competent leukemia cells (parental HL-60) and lymphoma cells (parental Raji) in comparison with their respiration-deficient clones HL-c6/ρ^0-C6F and Raji-C6. The mitochondria-defect cell lines were established by the present inventors and others (Pelicano et al., 2003). Cells were incubated with the indicated concentrations of 3-BrPA, and cytotoxicity was measured by two different assays: annexin-V/PI staining and colony formation assay.

HL-60/AR cells [8] = assay: Combination cytotoxicity in multi drug resistant cells, annexin-V/PI assay 24 h; type: cell-based, human; settings: multi drug resistant HL-60/AR cells
[9] = Stability of neutral drug solution on storage
[10] = test system: human lymphoma cells (Raji); assay: Apoptosis, annexin-V/PI flow cytometry; type: cell-based
Description: Because the mTOR pathway plays an important role in promoting cellular nutrient metabolism and cell growth, and function to enhance cell survival downstream of the P13K/Akt pathway, the present inventors postulated that a simultaneous inhibition of mTOR and glycolysis, which serve as a major metabolic pathway for ATP generation in cancer cells, would severely impact cellular energy metabolism and have a potent cytotoxic effect against malignant cells. To test this possibility, rapamycin was used as an agent to inhibit mTOR, and glycolycin (3-bromo-2-oxopropionate, abbreviated herein as 3-BrOP) to inhibit glycolysis.
(§3) Cell growth inhibition was determined by direct counting of the cells after they were treated with rapamycin, 3-BrOP, or their combination. A Coulter Z2 Particle Count & Size Analyzer was used to determine cell counts at 24 h, 48 h, and 72 h after drug incubation. Apoptosis was measured by flow cytometric analysis of cells stained with annexin V-FITC and propidium iodide (PI). Cells were treated with the indicated compounds under various incubation conditions as described in the figure legends. The samples were collected, washed with cold PBS, and then suspended in annexin-V binding buffer. The cells were stained with annexin V-FITC for 15 min at room temperature, washed, and then stained with PI. The samples were analyzed using a FACSCalibur flow cytometer equipped with CELLQuestPro software (Becton-Dickinson, San Jose, Calif.).

[11] = test system: HL-60 cells with high Bcl-2 expression; assay: MTT growth inhibition of Bcl-2 transfected cells; type: cell-based, human; settings: MTT assay
Description: Cell growth inhibition was measured by MTT assay.
Increased expression of the anti-apoptotic molecule Bcl-2 has been associated with drug resistance in cancer cells. The over-expression of Bcl-2 in HL-60 cells was […] against the cytotoxic effect of S-Glycolycin. […] Thus, Glycolycin may be used to overcome drug resistance due to Bcl-2 over expression.

[12] = test system: human lymphoma cells (Raji); assay: Sensitivity under hypoxic versus normoxic conditions, annexin-V/PI assay 24 h; type: cell-based; settings: 0.3 μM
Description: (Annexin-V/PI assay, 24 h)
as §2

Raji cells [13] = assay: Cell growth by direct cell counting (Coulter Z2); type: cell-based, human; settings: 100 ng/ml alone; up to 72 h
Description: A different assay was then used to further confirm the synergy between rapamycin and 3-BrOP. Raji cells were treated with 30 μM 3-BrOP, 100 ng/ml rapamycin, or their combination, and the numbers of cells were directly counted for consecutive 3 days, using a Coulter Z2 Particle Count & Size Analyzer.
as §3

Raji cells [14] = assay: Cellular glucose uptake, [3H]-2-deoxyglucose; type: cell-based, human; settings: 100 ng/ml for 20 h
Description: After the samples were washed three times with cold PBS, the radioactivity in the cell pellets was quantified by liquid scintillation counting. […] Intracellular nucleotides were extracted from the cells with 0.4 N of perchloric acid (PCA) for 10 min in ice-bath, neutralization with concentrated KOH to pH 7.0, and analyzed by HPLC analysis as described previously (Xu et al., 2005; Seymour et al., 1996). The intracellular ATP contents were calculated using the ATP standard curve generated under identical HPLC conditions, and normalized by equal cell number. The relative cellular ATP levels were expressed as percent of the control cells.

SMILES: O=C(O)C(=O)CBr [3-BrPA, 3-bromo-2-oxopropionic acid, reference compound]
- % Cell Survival (HL-60 cells [1]; 5 μM, fresh drug solution): 99.8 ± 1.9%
- % Cell Survival (HL-60 cells [1]; 10 μM, drug stored for 3 weeks at 4° C.): 70.0 ± 9.8%
- % Cell Survival (HL-60 cells [1]; 10 μM, fresh drug solution): 59.2 ± 4.1%
- % Cell Survival (HL-60 cells [1]; 30 μM, drug stored for 3 weeks at 4° C.): 87.0 ± 23%
- % Cell Survival (HL-60 cells [1]; 30 μM, fresh drug solution): 3.0 ± 1.4%
- % Cell Survival (HL-60 cells [1]; 100 μM, drug stored for 3 weeks at 4° C.): 2.3 ± 0.3%
- % Cell Survival (HL-60 cells [1]; 100 μM, fresh drug solution): 2.5 ± 0.8%
- concentration that completely depleted cellular ATP [2]: 0.3 mM
- concentration that completely depleted cellular ATP [3]: 0.3 mM
- cells undergoing apoptosis (HL-60 cells [4]): less than 20%
- sensitivity of HL-60/AR compared to parental HL-60 cells (HL-60/AR cells [5]): equally sensitive
- sensitivity under hypoxic versus normoxic conditions [6]: significantly more sensitive
- sensitivity of mitochondria-defect cells compared to parental cells [7]: more sensitive
- effect of combination with ara-C or doxorubicin on cytotoxic activity (HL-60/AR cells [8]): significantly enhance the cytotoxic activity
- activity of solution after storage ([9]; kept at 4° C. for 3 weeks): substantial loss of activity
- stability of solution at neutral pH ([9]; pH 7.0, kept at 4° C.): discoloration

SMILES: Nc1ccn([C@@H]2O[C@H](CO)[C@@H](O)[C@@H]2O)c(=O)n1 [ara-C]
- sensitivity of HL-60/AR compared to parental HL-60 cells (HL-60/AR cells [5]): moderately resistant
- apoptosis, % of the cells ([10]; concentration range of 0.5-1 μM, 30 h): 20-35%
- sensitivity of Bcl-2 transfected cells compared to transfected control (Neo) [11]: reduced sensitivity

SMILES: COc1cccc2c1C(=O)c1c(O)c3c(c(O)c1C2=O)C[C@@](O)(C(=O)CO)C[C@@H]3O[C@H]1C[C@H](N)[C@H](O)[C@H](C)O1 [doxorubicin]
- sensitivity of HL-60/AR compared to parental HL-60 cells (HL-60/AR cells [5]): highly resistant
- sensitivity under hypoxic versus normoxic conditions [12]: slightly reduced
- sensitivity under hypoxic versus normoxic conditions [6]: reduced
- sensitivity of Bcl-2 transfected cells compared to transfected control (Neo) [11]: reduced sensitivity

SMILES: CO[C@H]1C[C@@H]2CC[C@@H](C)[C@@](O)(O2)C(=O)C(=O)N2CCCC[C@H]2C(=O)O[C@H]([C@H](C)C[C@@H]2CC[C@@H](O)[C@H](OC)C2)CC(=O)[C@H](C)/C=C(\C)[C@@H](O)[C@@H](OC)C(=O)[C@H](C)C[C@H](C)/C=C/C=C/C=C/1C [rapamycin, reference compound]
- apoptosis ([10]; 100 ng/ml alone): 4.8%
- decrease in cell numbers (Raji cells [13]): ~35%
- decrease in glucose uptake (Raji cells [14]): 6%

SMILES: CC[C@]1(O)C[C@H]2CN(CCc3c([nH]c4ccccc34)[C@@](C(=O)OC)(c3cc4c(cc3OC)N(C=O)[C@H]3[C@@](O)(C(=O)OC)[C@H](OC(C)=O)[C@]5(CC)C=CCN6CC[C@]43[C@@H]65)C2)C1 [vincristine]
- sensitivity of HL-60/AR compared to parental HL-60 cells (HL-60/AR cells [5]): highly resistant
